Like-named read-outs stand apart in the source and are kept apart here.

The term remaining activity denotes the signal under treatment as a percentage of the control signal.

Common to all, as to assay type: biochemical
For one assay, the target named is MKK1 (Homo sapiens, UniProt Q02750). Description: Kinase screen: MKK1 assay. How it is done:
(§1) Generally, the same procedure was used for all assays. Since the total assay volume was 25.5 microliters, 0.5 microliters of inhibitors at 51× assay concentration were added to the plates before any other addition.
(§2) The basic procedure was to add 0.5 microliters inhibitor/control in DMSO to plate. Fifteen microliters of enzyme/substrate/buffer mix were added and incubated for 5 min. Ten microliters MgATP at the relevant concentration were added and incubated for 30 min. The assay was stopped by adding 5 microliters of 3% orthophosphoric acid. The assay was transferred to a p81 filter plate and read in a scintillation counter of 30 sec/well. Note that this assay procedure was not followed for MKK1, which instead involved a two-step assay, and PKC alpha, which required the addition of lipid vesicles.
After incubating at room temperature for 30 min, 5 μl from the first reaction was pipetted into 20 μl of the second reaction mix containing (final concentration) 25 mM Tris pH 7.5, 0.1 mM EGTA, 0.1 mM Na3VO4, 0.66 mg/ml myelin basic protein (MBP), 10 mM magnesium acetate and 0.05 mM [33P-g-ATP] (500-1000 cpm/pmole) and incubated for 30 min at room temperature. Assays were stopped by addition of 5 μl of 0.5 M (3%) orthophosphoric acid and then harvested onto P81 Unifilter plates with a wash buffer of 50 mM orthophosphoric acid.

For a further assay, the target named is CAMKKβ (Homo sapiens, UniProt Q96RR4). Description: Kinase screen: CAMKKb assay. The protocol:
as §1, §2
(500-1000 cpm/pmole) and incubated for 30 mins at room temperature. […] Assays were harvested onto P81 Unifilter plates using a wash buffer of 50 mM orthophosphoric acid.

The target in the next assay is T1, MST2 (Homo sapiens, UniProt Q13188).
T1 sequence (Q13188 1-491): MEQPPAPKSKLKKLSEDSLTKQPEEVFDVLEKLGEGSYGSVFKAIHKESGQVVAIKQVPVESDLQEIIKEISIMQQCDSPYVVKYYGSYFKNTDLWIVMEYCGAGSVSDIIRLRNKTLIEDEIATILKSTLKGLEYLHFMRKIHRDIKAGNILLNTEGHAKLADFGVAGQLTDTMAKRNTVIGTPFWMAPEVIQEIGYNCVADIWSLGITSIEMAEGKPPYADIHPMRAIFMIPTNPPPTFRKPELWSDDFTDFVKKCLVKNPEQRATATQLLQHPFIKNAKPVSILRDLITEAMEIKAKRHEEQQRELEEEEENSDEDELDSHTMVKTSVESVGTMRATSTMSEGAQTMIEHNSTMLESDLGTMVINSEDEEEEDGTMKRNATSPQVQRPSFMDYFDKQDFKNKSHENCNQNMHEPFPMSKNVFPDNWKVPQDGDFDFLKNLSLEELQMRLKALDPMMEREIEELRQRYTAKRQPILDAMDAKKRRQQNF
Description: Kinase screen: MST2 assay. The protocol: as §1, §2
MST2 assay: MST2 (5-20 mU diluted in 50 mM Tris pH 7.5, 0.1 mM EGTA, 0.1% b-mercaptoethanol, 100 μM Vanadate) was assayed against MBP in a final volume of 25.5 μl containing 50 mM Tris pH 7.5, 0.05% b-mercaptoethanol, 0.33 mg/ml MBP, 10 mM magnesium acetate and 0.02 mM [33P-g-ATP] (50-1000 cpm/pmole) and incubated for 30 min at room temperature. Assays were stopped by addition of 5 μl of 0.5 M (3%) orthophosphoric acid and then harvested onto P81 Unifilter plates with a wash buffer of 50 mM orthophosphoric acid.

The target in the next assay is FGF-R1 (Homo sapiens, UniProt P11362). As to the kind of experiment: Kinase screen: FGF-R1 assay. As to conditions: 10 micromolar compound; for remaining activity at 10 µM: read-out: mean activity remaining (as a percentage of the original activity), FGF-R1. How it is done:
as §1, §2
FGF-R1 assay: FGF-R1 (5-20 mU diluted in 50 mM Tris pH 7.5, 0.1 mM EGTA, 1 mg/ml BSA) was assayed against a substrate peptide (Poly Glut Tyr) in a final volume of 25.5 μl containing 50 mM Tris pH 7.5, 1 mg/ml substrate peptide, 10 mM magnesium acetate and 0.02 mM [33P-g-ATP] (50-1000 cpm/pmole) and incubated for 30 min at room temperature. Assays were stopped by addition of 5 μl of 0.5 M (3%) orthophosphoric acid and then harvested onto P81 Unifilter plates with a wash buffer of 50 mM orthophosphoric acid.

The target in the next assay is MST4 (Homo sapiens, UniProt Q9P289). As to the kind of experiment: Kinase screen: MST4 assay. As to conditions: 10 micromolar compound; for remaining activity at 10 µM: read-out: mean activity remaining (as a percentage of the original activity), MST4. The protocol:
as §1, §2
MST4 assay: 5-20 mU of MST4 (diluted in 50 mM Tris (pH 7.5), 0.1 mM EGTA) was assayed against MBP in a final volume of 25.5 μl containing 50 mM Tris (pH 7.5), 0.1 mM EGTA, 0.33 mg/ml MBP, 10 mM magnesium acetate and 0.02 mM [33P-g-ATP] (500-1000 cpm/pmole) and incubated for 30 mins at room temperature. Assays were stopped by addition of 5 μl of 0.5M (3%) orthophosphoric acid. Assays were harvested onto P81 Unifilter plates using a wash buffer of 50 mM orthophosphoric acid.

For the next assay, the target named is YES1 (Homo sapiens, UniProt P07947). As to the kind of experiment: Kinase screen: YES1 assay. As to conditions: 10 micromolar compound; for remaining activity at 10 µM: read-out: mean activity remaining (as a percentage of the original activity), YES1. How it is done:
as §1, §2
YES1 assay: YES1 (5-20 mU diluted in 50 mM Tris pH 7.5, 0.1 mM EGTA, 1 mg/ml BSA) was assayed against a substrate peptide (Poly Glut Tyr) in a final volume of 25.5 μl containing 50 mM Tris pH 7.5, 1 mg/ml substrate peptide, 10 mM magnesium acetate and 0.02 mM [33P-g-ATP] (50-1000 cpm/pmole) and incubated for 30 min at room temperature. Assays were stopped by addition of 5 μl of 0.5 M (3%) orthophosphoric acid and then harvested onto P81 Unifilter plates with a wash buffer of 50 mM orthophosphoric acid.

Where [1] appears, read: 10 micromolar compound, read-out: mean activity remaining (as a percentage of the original activity), MKK1.
Where [2] appears, read: 0.5 h, read-out: mean activity remaining (as a percentage of the original activity), CAMK Kb.
Setting [3] is: 10 micromolar compound, read-out: mean activity remaining (as a percentage of the original activity), MST2.

FGF-R1, sequence (P11362 22-822, species assumed): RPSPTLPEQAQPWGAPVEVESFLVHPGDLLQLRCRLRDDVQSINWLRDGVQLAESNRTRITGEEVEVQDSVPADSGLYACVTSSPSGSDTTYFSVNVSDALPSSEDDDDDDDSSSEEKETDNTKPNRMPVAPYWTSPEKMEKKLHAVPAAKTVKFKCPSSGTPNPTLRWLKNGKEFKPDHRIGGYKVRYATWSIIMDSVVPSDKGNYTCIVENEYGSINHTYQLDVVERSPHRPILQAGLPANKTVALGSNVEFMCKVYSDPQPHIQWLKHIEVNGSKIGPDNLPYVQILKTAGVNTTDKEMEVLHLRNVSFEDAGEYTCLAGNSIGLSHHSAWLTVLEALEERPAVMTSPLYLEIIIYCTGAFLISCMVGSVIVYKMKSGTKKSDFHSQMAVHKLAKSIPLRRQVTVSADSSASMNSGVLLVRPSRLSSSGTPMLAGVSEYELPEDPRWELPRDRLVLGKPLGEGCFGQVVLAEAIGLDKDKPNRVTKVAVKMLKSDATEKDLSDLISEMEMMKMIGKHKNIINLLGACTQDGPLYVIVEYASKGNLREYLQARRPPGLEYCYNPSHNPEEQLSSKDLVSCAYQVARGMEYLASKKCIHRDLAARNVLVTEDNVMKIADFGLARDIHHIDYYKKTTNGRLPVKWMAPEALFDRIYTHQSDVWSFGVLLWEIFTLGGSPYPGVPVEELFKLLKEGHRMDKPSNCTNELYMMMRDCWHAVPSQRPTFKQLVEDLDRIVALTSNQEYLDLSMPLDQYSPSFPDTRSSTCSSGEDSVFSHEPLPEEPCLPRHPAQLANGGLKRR
MKK1, sequence (Q02750 whole entry, species assumed): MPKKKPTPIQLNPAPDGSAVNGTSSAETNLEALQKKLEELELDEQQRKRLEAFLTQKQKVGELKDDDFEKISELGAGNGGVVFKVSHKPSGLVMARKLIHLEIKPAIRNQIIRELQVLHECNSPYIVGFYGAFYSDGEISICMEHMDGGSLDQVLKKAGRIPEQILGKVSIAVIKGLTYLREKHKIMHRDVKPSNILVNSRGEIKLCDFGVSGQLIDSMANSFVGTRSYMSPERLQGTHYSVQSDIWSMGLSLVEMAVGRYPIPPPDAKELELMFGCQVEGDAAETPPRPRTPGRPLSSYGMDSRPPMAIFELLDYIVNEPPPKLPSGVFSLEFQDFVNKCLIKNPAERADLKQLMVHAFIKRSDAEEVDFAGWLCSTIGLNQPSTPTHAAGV
MST4, sequence (Q9P289 whole entry, species assumed): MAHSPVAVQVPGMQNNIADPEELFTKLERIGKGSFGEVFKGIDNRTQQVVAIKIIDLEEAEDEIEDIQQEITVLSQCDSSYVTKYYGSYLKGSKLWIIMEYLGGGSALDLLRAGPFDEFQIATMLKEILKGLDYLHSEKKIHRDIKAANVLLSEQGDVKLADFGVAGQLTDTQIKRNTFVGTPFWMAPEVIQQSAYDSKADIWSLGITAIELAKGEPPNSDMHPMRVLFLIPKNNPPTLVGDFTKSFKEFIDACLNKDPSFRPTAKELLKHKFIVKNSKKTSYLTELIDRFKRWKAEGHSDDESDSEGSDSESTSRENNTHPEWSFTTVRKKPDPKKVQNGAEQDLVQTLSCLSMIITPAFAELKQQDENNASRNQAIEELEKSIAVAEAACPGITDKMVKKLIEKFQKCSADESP
YES1, sequence (P07947 whole entry, species assumed): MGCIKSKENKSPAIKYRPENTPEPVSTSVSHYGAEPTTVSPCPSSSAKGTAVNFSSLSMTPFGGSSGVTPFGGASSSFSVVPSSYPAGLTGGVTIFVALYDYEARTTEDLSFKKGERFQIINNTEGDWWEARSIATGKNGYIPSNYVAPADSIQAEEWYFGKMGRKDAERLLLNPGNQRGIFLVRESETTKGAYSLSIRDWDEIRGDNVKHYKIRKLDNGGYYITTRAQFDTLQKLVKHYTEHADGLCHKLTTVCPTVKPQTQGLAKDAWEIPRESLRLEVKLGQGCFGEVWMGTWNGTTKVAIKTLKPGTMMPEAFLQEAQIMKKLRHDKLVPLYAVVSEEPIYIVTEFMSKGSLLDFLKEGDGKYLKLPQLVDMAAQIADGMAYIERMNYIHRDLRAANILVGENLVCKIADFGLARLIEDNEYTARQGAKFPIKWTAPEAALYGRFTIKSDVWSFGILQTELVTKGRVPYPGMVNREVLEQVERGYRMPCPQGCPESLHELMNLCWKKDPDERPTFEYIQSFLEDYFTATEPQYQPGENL

Take `CC[C@H](CO)Nc1cc(NCc2ccccc2)n2ncc(C(C)C)c2n1` [ICEC0067]: the remaining activity at 10 µM at MKK1 (setting [1]) stood at 44%; on CAMKKβ (setting [2]), 29%; at MST2 (setting [3]) it was 89%; on FGF-R1, 78%; at MST4, 103%; on YES1 it was 87%.
In the case of `C=C[C@H](CO)Nc1cc(NCc2ccccc2)n2ncc(C(C)C)c2n1` [ICEC0065], the remaining activity at 10 µM on MKK1 (setting [1]) came out at 107%; at CAMKKβ (setting [2]) it was 31%; at MST2 (setting [3]) it was 87%; at FGF-R1 it was 87%; at MST4, 91%; at YES1, 90%.
Regarding `CC(C)c1cnn2c(NCc3ccccc3)cc(N[C@@H](CO)[C@H](O)CO)nc12` [ICEC0318, (3S)-3-(7-(Benzylamino)-3-isopropylpyrazolo[1,5-a]pyrimidin-5-ylamino)butane-1,2,4-triol], the remaining activity at 10 µM at MKK1 (setting [1]) turned out to be 65%; on CAMKKβ (setting [2]) it was 23%; on MST2 (setting [3]) it was 86%; on FGF-R1 it was 86%; at MST4, 92%; at YES1, 89%.
For `CC(C)c1cnn2c(NCc3ccccc3F)cc(NCCCCCN)nc12` [ICEC-0232], the “mean activity remaining (as a percentage of the original activity), MKK1” value on MKK1 (10 micromolar compound) is 83%. Moreover, the “mean activity remaining (as a percentage of the original activity), CAMK Kb” value on CAMKKβ (10 micromolar compound) turned out to be 18%. Further, at MST2 (10 micromolar compound), the “mean activity remaining (as a percentage of the original activity), MST2” value is listed as 82%. In addition, the “mean activity remaining (as a percentage of the original activity), FGF-R1” value on FGF-R1 is given as 82%. Moreover, on MST4, the “mean activity remaining (as a percentage of the original activity), MST4” value was 85%. The “mean activity remaining (as a percentage of the original activity), YES1” value at YES1 was 106%.
On to `CC(C)c1cnn2c(NCc3ccccc3)cc(NCCCCCCCN)nc12` [BS-181], for which the remaining activity at 10 µM at MKK1 (MKK1, 10 μM, read-out: Mean Remaining Enzyme Activity (%)) stood at 96%; on CAMKKβ (CAMKKβ, 10 μM, read-out: Mean Remaining Enzyme Activity (%)), 67%; on MST2 (MST2, 10 μM, read-out: Mean Remaining Enzyme Activity (%)), 112%.

For the origin of these results see patent US8067424B2, “Selective inhibitors for cyclin-dependent kinases” (Emory University, priority 2007, dated 2011).
